Tests used:
[1] = test system: E. coli DH10B/pOA(1)PLV49B10 cells containing the α-H-α-amino acid amide racemase gene from Ochrobactrum anthropi IA; assay: Racemase activity test with D-leucine amide and whole E. coli cells (Example 5); format: cell-based; conditions: Strain A
Method: A single colony of E. coli DH10B containing plasmid pOA(1)PLV49B10 was transferred to LB medium with kanamycin (50 mg/l) to prepare a pre-culture. After overnight incubation at 28° C. and 200 rpm, this pre-culture was used to inoculated a flask with 500 ml of 2*TY medium (10 g/l Yeast extract, 16 g/l Tryptone, 5 g/l NaCl) containing kanamycin (50 mg/l). After overnight growth at 28° C. (OD620nm=4.4) and 200 rpm, cells were harvested by centrifugation (15 min. at 6,200×g, 4° C.), and washed with 50 mM HEPES-NaOH buffer of pH 7.7.
The cell pellets from both cultures were subsequently washed and resuspended in 25 ml of 50 mM HEPES-NaOH buffer, pH 7.7. Aliquots of 2 ml of both cell suspensions were centrifuged once more and the pellets were stored at −20° C. until execution of the activity tests described below. The remaining part of these cell suspensions was stored at −20° C. for use in Example 6.
To determine the activity of E. coli/pOA(1)PLV49B10 and the E. coli control, the above-mentioned cell pellets were thawed and resuspended to a total volume of 1 ml with 50 mM HEPES-NaOH buffer, pH 7.7. Then, reaction mixtures of 10 ml each were prepared containing 50 mM HEPES-NaOH buffer (pH 7.7), 10 μM pyridoxal-5-phosphate (PLP), 2.5 wt % of D-leucine amide, if applicable 20 mM of EDTA to suppress the E. coli amidase activity, and 0.5 ml of the E. coli/pOA(1)PLV49B10 and E. coli DH10B/pZErO-GFPuv-wrong-orientation cell suspensions or water (for chemical blanks). Reactions were started by the addition of the cells. Reaction mixtures were incubated at 30° C. and 175 rpm. Directly after addition of the cells (t=0 hours) and after 27 and 43 hours samples were taken in which the reaction was stopped by removal of the cells via centrifugation followed by 0.22 μM filtration. Finally, the filtered samples were stored at −20° C. until analysis by chiral HPLC as described below: • column: Sumichiral OA5000 from Sumika (150×4.6 mm I.D., 5μ)+guard column • eluent: 85 v/v % 2 mM CuSO4+15 v/v % methanol • flow: 1.0 ml/min. • column temp.: 40° C. • inj. volume: 5 μl • detection: fluorescence detection after post-column reaction with o-phthalaldehyde and 2-mercaptoethanol (wavelength ex=338 nm and em>420 nm)

[2] = test system: α-H-α-amino acid amide racemase from Ochrobactrum anthropi IA; assay: Substrate specificity, CFE from E. coli TOP10/pKEC_AZAR_3 (Example 7); format: biochemical; conditions: relative to the activity towards D-leucine amide; 75 mM substrate, 20 mM EDTA, pH 8.0, 37° C.
Method: Two pre-cultures of E. coli TOP10/pKEC_AZAR—3 (see Example 4) were prepared by inoculation of 2 erlenmeyer flasks with 100 ml of 2*TY medium (10 g/l Yeast extract, 16 g/l Tryptone, 5 g/l NaCl) containing 50 mg/l of kanamycin with 10 μl of a glycerol stock per flask. After overnight cultivation at 28° C. and 200 rpm, the pre-cultures were pooled, and subsequently used to inoculate 2 erlenmeyer flasks each containing 1 l of the same medium. Also these flasks were cultivated at 28° C. and 200 rpm for 16-18 h. Cells were harvested by centrifugation (15 min. at 6,200×g, 4° C.), washed with 20 mM HEPES-NaOH, pH 7.5, pooled, weighed, and resuspended in a solution containing 20 mM HEPES-NaOH, pH 7.5, 20 μM pyridoxal-5-phosphate, and 1.3 mM of dithiothreitol in a 1:3 ratio of wet weight cells to solution. Then, cells were disintegrated by 10 min. sonification with a Soniprep 150 of MSE operated at maximum amplitude using time intervals of 10 sec. (i.e., 10 sec. sonification, 10 sec. cooling) and cooling in ice/acetone. Particles were removed by centrifugation, after which sucrose was added to the cell free extract to a final concentration of 0.25 M. The resulting cell free extract (CFE) was stored in aliquots at −20° C. E. coli TOP10/pBAD/Myc-HisC (Invitrogen) cells were treated in exactly the same way and served as negative control.
The substrate specificity of the α-H-α-amino acid racemase from O. anthropi IA was determined by measuring the racemase activity of the above-mentioned CFE towards a number of enantiomerically pure amino acid amides. Each reaction mixture of 10 ml (including the CFE) contained 50 mM HEPES-NaOH, pH 8.0, 20 μM pyridoxal-5-phosphate, 0.4 mg/ml BSA, 1 mM dithiothreitol, 20 mM EDTA and 75 mM of one of the amino acid amides tested. Reactions were started by the addition of 1 ml of the thawed CFE of E. coli TOP10/pKEC_AZAR—3 or E. coli TOP10/pBAD/Myc-HisC (blank) and were incubated at 37° C. At regular time intervals samples of 1 ml were taken and transferred to vials containing 1 ml of 1M H3PO4 to stop the reaction. After sufficient dilution of the samples in 0.4 M borate buffer pH 9.4, the mixtures obtained were analyzed using HPLC to determine the exact concentrations of the two amino acid and two amino acid amide enantiomers according to the following method.
The initial activity for the different substrates tested was calculated from the linear parts of the progress curves, in which the conversion was plotted against the reaction time. Use of the linear part of the progress curves secured that only samples taken at time points at which the substrate concentration was still sufficiently high, were used for the calculations. The conversion was calculated by dividing the amount of amino acid and amino acid amide formed via the racemase reaction (so with the opposite stereochemistry compared to the substrate molecule) by the total amount of two amino acid enantiomers and the two amino acid amide enantiomers.

[3] = with 20 mM EDTA, incubation time 27 h
[4] = with 20 mM EDTA, incubation time 43 h
[5] = without 20 mM EDTA, incubation time 27 h
[6] = without 20 mM EDTA, incubation time 43 h

CC(C)C[C@@H](N)C(N)=O [D-leucine amide]
D-leucine amide ([1]; with 20 mM EDTA, incubation time 0 h): 2.61 wt %
D-leucine [1, 3]: 0.003 wt %
D-leucine amide [1, 3]: 1.77 wt %
L-leucine [1, 3]: 0.313 wt %
L-leucine amide [1, 3]: 0.555 wt %
D-leucine [1, 4]: 0.006 wt %
D-leucine amide [1, 4]: 1.59 wt %
L-leucine [1, 4]: 0.345 wt %
L-leucine amide [1, 4]: 0.772 wt %
D-leucine amide ([1]; without 20 mM EDTA, incubation time 0 h): 2.63 wt %
D-leucine [1, 5]: 0.009 wt %
D-leucine amide [1, 5]: 1.03 wt %
L-leucine [1, 5]: 1.71 wt %
L-leucine amide [1, 5]: 0.170 wt %
D-leucine [1, 6]: 0.017 wt %
D-leucine amide [1, 6]: 0.512 wt %
L-leucine [1, 6]: 2.12 wt %
L-leucine amide [1, 6]: 0.063 wt %
Rel. initial activity [2]: 100%

From US7371555B2, “Polypeptides having α-H-α-amino acid amide racemase activity and nucleic acids encoding the same” (DSM IP Assets B.V., priority 2002, dated 2008)
